These results are taken from patent US9580416B2, “Inhibitors of Bruton's tyrosine kinase” (PHARMACYCLICS LLC, priority 2014, dated 2017).

pIC50: −log10 of the molar value. Where only a bound is given, the exact number is not on record here.

Btk, sequence (Q06187 whole entry): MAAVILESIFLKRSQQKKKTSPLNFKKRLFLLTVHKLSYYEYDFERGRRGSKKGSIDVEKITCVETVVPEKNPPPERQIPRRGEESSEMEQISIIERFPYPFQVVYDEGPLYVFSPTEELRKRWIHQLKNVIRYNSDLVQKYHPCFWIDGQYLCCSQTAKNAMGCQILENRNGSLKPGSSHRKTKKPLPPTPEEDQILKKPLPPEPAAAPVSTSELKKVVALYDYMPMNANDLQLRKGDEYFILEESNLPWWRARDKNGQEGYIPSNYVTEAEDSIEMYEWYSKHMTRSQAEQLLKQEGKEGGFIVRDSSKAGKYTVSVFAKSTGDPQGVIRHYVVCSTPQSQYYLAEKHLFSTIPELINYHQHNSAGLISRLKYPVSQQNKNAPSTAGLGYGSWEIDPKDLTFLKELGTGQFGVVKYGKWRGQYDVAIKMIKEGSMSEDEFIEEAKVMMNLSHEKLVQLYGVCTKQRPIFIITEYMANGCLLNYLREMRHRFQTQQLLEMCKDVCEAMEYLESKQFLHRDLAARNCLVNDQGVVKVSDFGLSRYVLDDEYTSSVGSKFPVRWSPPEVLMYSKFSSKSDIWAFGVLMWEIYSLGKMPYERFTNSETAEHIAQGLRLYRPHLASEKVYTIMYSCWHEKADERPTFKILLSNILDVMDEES

The target in the test is Btk (Homo sapiens, UniProt Q06187). Kind of test: Btk kinase activity, TR-FRET assay. In kind it is biochemical. The note with it: read-out: Btk (IC50). How it is done:
Btk kinase activity is determined using a time-resolved fluorescence resonance energy transfer (TR-FRET) methodology. Measurements are performed in a reaction volume of 50 μL using 96-well assay plates. Kinase enzyme, inhibitor, ATP (at the Km for the kinase), and 1 […] (Biotin-AVLESEEELYSSARQ-NH2) are incubated in a reaction buffer composed of 20 mM Tris, 50 mM NaCl, MgCl2 (5-25 mM depending on the kinase), MnCl2 (0-10 mM), 1 mM DTT, 0.1 mM EDTA, 0.01% bovine serum albumin, 0.005% Tween-20, and 10% DMSO at pH 7.4 for one hour. The reaction is quenched by the addition of 1.2 equivalents of EDTA (relative to divalent cation) in 25 μL of 1× Lance buffer (Perkin-Elmer). Streptavidin-APC (Perkin-Elmer) and Eu-labeled p-Tyr100 antibody (Perkin-Elmer) in 1× Lance buffer are added in a 25 μL volume to give final concentrations of 100 nM and 2.5 nM, respectively, and the mixture is allowed to incubate for one hour. The TR-FRET signal is measured on a multimode plate reader with an excitation wavelength (λEx) of 330 nm and detection wavelengths (λEm) of 615 and 665 nm. Activity is determined by the ratio of the fluorescence at 665 nm to that at 615 nm. For each compound, enzyme activity is measured at various concentrations of compound. Negative control reactions are performed in the absence of inhibitor in replicates of six, and two no-enzyme controls are used to determine baseline fluorescence levels. Inhibition constants, Ki(app), ware obtained using the program BatchKi (Kuzmic et al. (2000), Anal. Biochem. 286:45-50). IC50s are obtained according to the equation: IC50={Ki(app)/(1+[ATP]/Km^ATP)}+[E]total/2;
For all kinases, [ATP]=Km^ATP, [Btk]total=0.5 nM and [Lck]total=6 nM.
(In TR-FRET formats the signal depends on donor and acceptor labels being close together.)
What is called pIC50 is the negative decadic logarithm of the IC50, by convention in mol/L. For `CN(C/C=C/C(=O)N1CCC[C@@H](Nc2n[nH]c3nccc(Oc4ccc(C(=O)Nc5cccc(C(F)(F)F)c5)cc4)c23)C1)C1CC1` [compound 138, 4-[(3-{[(3R)-1-[(2E)-4-[cyclopropyl(methyl)amino]but-2-enoyl]piperidin-3-yl]amino}-1H-pyrazolo[3,4-b]pyridin-4-yl)oxy]-N-[3-(trifluoromethyl)phenyl]benzamide], the pIC50 is 6.00 to 7.00. In the case of `CCNC(=O)Nc1ccc(Oc2ccnc3[nH]nc(N[C@@H]4CCCN(C(=O)/C=C/CN(C)C5CC5)C4)c23)cc1` [compound 136] it was < 5.00. For `Nc1ncnc2[nH]nc(-c3ccc(Oc4ccccc4)cc3)c12` [compound 121, 3-(4-phenoxyphenyl)-1H-pyrazolo[3,4-b]pyrimidin-4-amine], the pIC50 is > 7.00. In the case of `CC#CC(=O)N1CCC[C@@H](Nc2n[nH]c3nccc(Oc4ccc(C(=O)Nc5nnc(C)s5)cc4)c23)C1` [compound 180] it was 5.00 to 6.00.

As to `c1ccc(Oc2ccc(Oc3ccnc4[nH]nc(NC[C@@H]5CCCNC5)c34)cc2)cc1` [compound 263, (R)-4-(4-phenoxyphenoxy)-N-(piperidin-3-ylmethyl)-1H-pyrazolo[3,4-b]pyridin-3-amine], the negative logarithm of the IC50 (pIC50) is 6.00 to 7.00.

Turning to `CC#CC(=O)N1CCC[C@@H](Nc2n[nH]c3nccc(Oc4ccc(C(=O)Nc5ncc(C#N)s5)cc4)c23)C1` [compound 168], the pIC50 is > 7.00. For the compound `C=CC(=O)N1CCC[C@@H](Nc2n[nH]c3nccc(Oc4ccc(-c5cc(C(F)(F)F)ccn5)cc4)c23)C1` [compound 155], the pIC50 was 6.00 to 7.00. In the case of `CC#CC(=O)N1CCC[C@@H](Nc2n[nH]c3nccc(Oc4ccc(C(=O)N(C)c5ncc(C)s5)cc4)c23)C1` [compound 210, 4-[(3-{[(3R)-1-(but-2-ynoyl)piperidin-3-yl]amino}-1H-pyrazolo[3,4-b]pyridin-4-yl)oxy]-N-methyl-N-(5-methyl-1,3-thiazol-2-yl)benzamide] it was 6.00 to 7.00; in that of `CCC(=O)N1CCC[C@@H](N(C(=O)CC)c2n[nH]c3ncnc(Oc4ccc(Oc5ccccc5)cc4)c23)C1` [compound 52], 6.00 to 7.00; in that of `CN(C/C=C/C(=O)N1CC[C@@H](N2CC(=O)N(c3ccc(Oc4ccccc4)cc3)c3ccnc4[nH]nc2c34)C1)C1CC1` [compound 239], > 7.00. On to `C=CC(=O)N1CCC(Nc2n[nH]c3nccc(Oc4ccc(Oc5ccccc5)cc4)c23)CC1` [compound 265, 1-(4-(4-(4-phenoxyphenoxy)-1H-pyrazolo[3,4-b]pyridin-3-ylamino)piperidin-1-yl)prop-2-en-1-one], for which the pIC50 was > 7.00. In the case of `CC(C)NC(=O)Nc1ccc(Oc2ccnc3[nH]nc(N[C@@H]4CCCN(C(=O)/C=C/CN(C)C5CC5)C4)c23)cc1` [compound 147] it was < 5.00.

For the compound `CC(=O)N1CCN(C(=O)c2cccc(Oc3ccnc4[nH]nc(N[C@@H]5CCCNC5)c34)c2)CC1` [compound 257, (R)-1-(4-(3-(3-(piperidin-3-ylamino)-1H-pyrazolo[3,4-b]pyridin-4-yloxy)benzoyl)piperazin-1-yl)ethanone], the pIC50 is 6.00 to 7.00. Consider `Cc1cnc(NC(=O)[C@H]2CC[C@H](Oc3ccnc4[nH]nc(N[C@@H]5CCCN(C(=O)/C=C/CN(C)C6CC6)C5)c34)CC2)s1` [compound 152], for which the negative logarithm of the IC50 (pIC50) is < 5.00.

Turning to `C=CC(=O)N1CC[C@H](CNc2n[nH]c3nccc(Oc4ccc(Oc5ccccc5)cc4)c23)C1` [compound 268, (R)-1-(3-((4-(4-phenoxyphenoxy)-1H-pyrazolo[3,4-b]pyridin-3-ylamino)methyl)pyrrolidin-1-yl)prop-2-en-1-one], the pIC50 was > 7.00. In the case of `C=CC(=O)N1CCC[C@@H](Nc2n[nH]c3nccc(Oc4ccc(C(=O)Nc5ncc(C(F)(F)F)s5)cc4)c23)C1` [compound 208, 4-[(3-{[(3R)-1-(prop-2-enoyl)piperidin-3-yl]amino}-1H-pyrazolo[3,4-b]pyridin-4-yl)oxy]-N-[5-(trifluoromethyl)-1,3-thiazol-2-yl]benzamide] it was > 7.00; in that of `C=CC(=O)N1CC[C@@H](N(C)c2n[nH]c3nccc(Oc4ccc(Cl)cc4)c23)C1` [compound 2, 1-[(3R)-3-{[4-(4-chlorophenoxy)-1H-pyrazolo[3,4-b]pyridin-3-yl](methyl)amino}pyrrolidin-1-yl]prop-2-en-1-one], > 7.00; in that of `C=CC(=O)N1CCC[C@@H](Nc2n[nH]c3nccc(Oc4ccc(-c5nc6ncccc6o5)cc4)c23)C1` [compound 213, 1-[(3R)-3-{[4-(4-{[1,3]oxazolo[4,5-b]pyridin-2-yl}phenoxy)-1H-pyrazolo[3,4-b]pyridin-3-yl]amino}piperidin-1-yl]prop-2-en-1-one], 6.00 to 7.00. As to `CN(C/C=C/C(=O)N1CC[C@@H](N(C(=O)/C=C/CN(C)C2CC2)c2n[nH]c3ncnc(Oc4ccc(Oc5ccccc5)cc4)c23)C1)C1CC1` [compound 49], the pIC50 was 6.00 to 7.00. In the case of `CC#CC(=O)N1CCC[C@@H](Nc2n[nH]c3nccc(Oc4ccc(-c5nc6ncccc6o5)cc4)c23)C1` [compound 170] it was 6.00 to 7.00. In the case of `CN(C)C/C=C/C(=O)N1CC[C@@H](Nc2n[nH]c3nccc(Oc4ccc(Oc5ccccc5)cc4C(N)=O)c23)C1` [compound 41] it was 6.00 to 7.00.

As to `C=CC(=O)N1CCC[C@@H](Nc2n[nH]c3nccc(Oc4ccc(C(=O)N(C)c5ncc(C)s5)cc4)c23)C1` [compound 211, N-methyl-N-(5-methyl-1,3-thiazol-2-yl)-4-[(3-{[(3R)-1-(prop-2-enoyl)piperidin-3-yl]amino}-1H-pyrazolo[3,4-b]pyridin-4-yl)oxy]benzamide], the pIC50 was > 7.00. In the case of `CN(C/C=C/C(=O)N1CC[C@@H](N2C(=O)CN(c3ccc(Oc4ccccc4)cc3)c3ccnc4[nH]nc2c34)C1)C1CC1` [compound 238] it was 6.00 to 7.00; in that of `Cc1cc(NC(=O)c2cccc(Oc3ccnc4[nH]nc(N[C@@H]5CCCNC5)c34)c2)ccc1C(C)C` [compound 258, (R)—N-(4-isopropyl-3-methylphenyl)-3-(3-(piperidin-3-ylamino)-1H-pyrazolo[3,4-b]pyridin-4-yloxy)benzamide], 6.00 to 7.00. In the case of `O=C(c1cccc(Oc2ccnc3[nH]nc(N[C@@H]4CCCNC4)c23)c1)N1CCOCC1` [compound 256, (R)-morpholino(3-(3-(piperidin-3-ylamino)-1H-pyrazolo[3,4-b]pyridin-4-yloxy)phenyl)methanone] it was 6.00 to 7.00; in that of `CN(C/C=C/C(=O)N1CCC[C@@H](Nc2n[nH]c3nccc(Oc4ccc(C(=O)Nc5cc(C(F)(F)F)ccn5)cc4)c23)C1)C1CC1` [compound 212, 4-[(3-{[(3R)-1-[(2E)-4-[cyclopropyl(methyl)amino]but-2-enoyl]piperidin-3-yl]amino}-1H-pyrazolo[3,4-b]pyridin-4-yl)oxy]-N-[4-(trifluoromethyl)pyridin-2-yl]benzamide], > 7.00. Consider `CC#CC(=O)N1CCC[C@@H](Nc2n[nH]c3nccc(Oc4ccc(C(=O)N5CCCC(C(F)(F)F)C5)cc4)c23)C1` (stereo partly drawn) [compound 163], for which the negative logarithm of the IC50 (pIC50) was 6.00 to 7.00. In the case of `Cc1nnc(NC(=O)c2ccc(Oc3ccnc4[nH]nc(N[C@@H]5CCCN(C(=O)/C=C/CN(C)C6CC6)C5)c34)cc2)s1` [compound 209, 4-[(3-{[(3R)-1-[(2E)-4-[cyclopropyl(methyl)amino]but-2-enoyl]piperidin-3-yl]amino}-1H-pyrazolo[3,4-b]pyridin-4-yl)oxy]-N-(5-methyl-1,3,4-thiadiazol-2-yl)benzamide] it was < 5.00; in that of `CC#CC(=O)N1CCC[C@@H](Nc2n[nH]c3nccc(Oc4ccc(-c5ccc(C(F)(F)F)cn5)cc4)c23)C1` [compound 206, 1-[(3R)-3-[(4-{4-[5-(trifluoromethyl)pyridin-2-yl]phenoxy}-1H-pyrazolo[3,4-b]pyridin-3-yl)amino]piperidin-1-yl]but-2-yn-1-one], < 5.00. On to `Cc1cc(NC(=O)c2cccc(Oc3ccnc4[nH]nc(N[C@@H]5CCNC5)c34)c2)ccc1C(C)C` [compound 249, (R)—N-(4-isopropyl-3-methylphenyl)-3-(3-(pyrrolidin-3-ylamino)-1H-pyrazolo[3,4-b]pyridin-4-yloxy)benzamide], for which the pIC50 is 6.00 to 7.00. In the case of `C=CC(=O)N1CCC[C@@H](Nc2n[nH]c3nccc(Oc4ccc(C(=O)Nc5ncc(C#N)s5)cc4)c23)C1` [compound 166] it was > 7.00. In the case of `O=C(c1cccc(Oc2ccnc3[nH]nc(N[C@@H]4CCCNC4)c23)c1)N1CCCCC1` [compound 255, (R)-piperidin-1-yl(3-(3-(piperidin-3-ylamino)-1H-pyrazolo[3,4-b]pyridin-4-yloxy)phenyl)methanone] it was 6.00 to 7.00.

On to `C=CC(=O)N1CCC(CNc2n[nH]c3nccc(Oc4ccc(Oc5ccccc5)cc4)c23)CC1` [compound 266, 1-(4-((4-(4-phenoxyphenoxy)-1H-pyrazolo[3,4-b]pyridin-3-ylamino)methyl)piperidin-1-yl)prop-2-en-1-one], for which the pIC50 is > 7.00.
